According to ChEMBL document CHEMBL3885861, “Open TG-GATES”:

Species on record: Rattus norvegicus
Assay: Open TG-GATES - Regimen: Single
Type: toxicity, organism-based, Sprague-Dawley
Set-up: regimen Single, gender Male, age 6 weeks
Conditions: in vivo, po, 300 mg/kg, route gavage, dose level Middle; for APTT / Bas / Eos / Fbg / Hb / Ht / Lym / MCH / MCHC / MCV / Mono / Neu / PT / Plat / RBC / Ret / WBC: tissue Blood; for KIDNEY_L / KIDNEY_R / KIDNEY_TOTAL: tissue Kidney; for LIVER: tissue Liver; for A/G / ALP / ALT / AST / BUN / CRE / Ca / Cl / DBIL / GLC / IP / K / LDH / Na / PL / RALB / TBIL / TC / TG / TP / gamma-GTP: tissue Plasma

## Cc1nnc2n1-c1ccc(Cl)cc1C(c1ccccc1Cl)=NC2 [TRIAZOLAM]
3 h
  TERMINAL_BW: 190.9 g
  APTT: 16.4 s
  Bas: 0.2%
  Eos: 1%
  Fbg: 270.4 mg/dL
  Hb: 13.9 g/dL
  Ht: 42.3%
  Lym: 73.8%
  MCH: 21 pg
  MCHC: 33%
  MCV: 63.6 fL
  Mono: 3%
  Neu: 21.4%
  PT: 13.4 s
  Plat: 117 x10_4/uL
  RBC: 665.8 x10_4/ul
  Ret: 9%
  WBC: 63.2 x10_2/uL
  KIDNEY_L: 0.8 g
  KIDNEY_R: 0.8 g
  KIDNEY_TOTAL: 1.7 g
  LIVER: 8.6 g
  A/G: 0.9
  ALP: 1451.2 IU/L
  ALT: 40.2 IU/L
  AST: 71 IU/L
  BUN: 9.6 mg/dL
  CRE: 0.1 mg/dL
  Ca: 11.3 mg/dL
  Cl: 103.2 meq/L
  DBIL: 0.008 mg/dL
  GLC: 189 mg/dL
  IP: 10.7 mg/dL
  K: 4.2 meq/L
  LDH: 79.4 IU/L
  Na: 141.4 meq/L
  PL: 169.4 mg/dL
  RALB: 2.5 g/dL
  TBIL: 0.066 mg/dL
  TC: 90.4 mg/dL
  TG: 60.8 mg/dL
  TP: 5.2 g/dL
  gamma-GTP: 1.8 IU/L
6 h
  TERMINAL_BW: 191.6 g
  APTT: 17.4 s
  Bas: 0%
  Eos: 0.4%
  Fbg: 282.8 mg/dL
  Hb: 13.8 g/dL
  Ht: 42.4%
  Lym: 77.2%
  MCH: 20.5 pg
  MCHC: 32.6%
  MCV: 63 fL
  Mono: 2.4%
  Neu: 18.8%
  PT: 13.5 s
  Plat: 123.3 x10_4/uL
  RBC: 674.2 x10_4/ul
  Ret: 9.2%
  WBC: 77.5 x10_2/uL
  KIDNEY_L: 0.9 g
  KIDNEY_R: 0.9 g
  KIDNEY_TOTAL: 1.8 g
  LIVER: 8.3 g
  A/G: 0.9
  ALP: 1395 IU/L
  ALT: 35.6 IU/L
  AST: 66.6 IU/L
  BUN: 10.2 mg/dL
  CRE: 0.1 mg/dL
  Ca: 11.2 mg/dL
  Cl: 103 meq/L
  DBIL: 0.01 mg/dL
  GLC: 183.4 mg/dL
  IP: 10.9 mg/dL
  K: 4.1 meq/L
  LDH: 63.2 IU/L
  Na: 141.8 meq/L
  PL: 147.6 mg/dL
  RALB: 2.5 g/dL
  TBIL: 0.068 mg/dL
  TC: 81.2 mg/dL
  TG: 37.6 mg/dL
  TP: 5.3 g/dL
  gamma-GTP: 1 IU/L
9 h
  TERMINAL_BW: 193.6 g
  APTT: 16.7 s
  Bas: 0%
  Eos: 0.8%
  Fbg: 279.6 mg/dL
  Hb: 13.5 g/dL
  Ht: 41.2%
  Lym: 74%
  MCH: 21.4 pg
  MCHC: 32.8%
  MCV: 65.5 fL
  Mono: 2.2%
  Neu: 22%
  PT: 13.5 s
  Plat: 121.1 x10_4/uL
  RBC: 629.6 x10_4/ul
  Ret: 9.5%
  WBC: 87.2 x10_2/uL
  KIDNEY_L: 0.9 g
  KIDNEY_R: 0.8 g
  KIDNEY_TOTAL: 1.7 g
  LIVER: 7.6 g
  A/G: 0.9
  ALP: 1488.6 IU/L
  ALT: 32 IU/L
  AST: 65.2 IU/L
  BUN: 10 mg/dL
  CRE: 0.2 mg/dL
  Ca: 11 mg/dL
  Cl: 104.4 meq/L
  DBIL: 0.01 mg/dL
  GLC: 188 mg/dL
  IP: 10.6 mg/dL
  K: 4.4 meq/L
  LDH: 57.4 IU/L
  Na: 141.2 meq/L
  PL: 144.2 mg/dL
  RALB: 2.4 g/dL
  TBIL: 0.058 mg/dL
  TC: 74.2 mg/dL
  TG: 49.4 mg/dL
  TP: 5.1 g/dL
  gamma-GTP: 1.2 IU/L
24 h
  TERMINAL_BW: 207.4 g
  APTT: 28.1 s
  Bas: 0%
  Eos: 1%
  Fbg: 263.2 mg/dL
  Hb: 13.5 g/dL
  Ht: 40.8%
  Lym: 74.8%
  MCH: 21 pg
  MCHC: 33%
  MCV: 63.6 fL
  Mono: 2.6%
  Neu: 21%
  PT: 13.3 s
  Plat: 127 x10_4/uL
  RBC: 643.6 x10_4/ul
  Ret: 8%
  WBC: 94.8 x10_2/uL
  KIDNEY_L: 0.9 g
  KIDNEY_R: 0.9 g
  KIDNEY_TOTAL: 1.8 g
  LIVER: 9.2 g
  A/G: 0.9
  ALP: 1802.4 IU/L
  ALT: 44.4 IU/L
  AST: 66.2 IU/L
  BUN: 11.8 mg/dL
  CRE: 0.2 mg/dL
  Ca: 11.3 mg/dL
  Cl: 102.8 meq/L
  DBIL: 0.018 mg/dL
  GLC: 180.2 mg/dL
  IP: 9.2 mg/dL
  K: 4.5 meq/L
  LDH: 73.6 IU/L
  Na: 140.8 meq/L
  PL: 155.2 mg/dL
  RALB: 2.6 g/dL
  TBIL: 0.058 mg/dL
  TC: 77.6 mg/dL
  TG: 88 mg/dL
  TP: 5.4 g/dL
  gamma-GTP: 1 IU/L
